From patent US11938121B2, “Treatment of infections and biofilm formation using a cellulose synthase inhibitor” (Purdue Research Foundation, priority 2020, dated 2024)

Legend:
[1] = molecular target: T1, GFP-CESA6c^P595S: GFP-tagged central cytoplasmic domain of AtCESA6 (cellulose synthase, CESA6) carrying missense mutation P595S, with a His-SUMO tag (Arabidopsis thaliana, UniProt Q94JQ6, P595S); experiment: Microscale thermophoresis (MST) binding to purified GFP-tagged CESA6c^P595S (missense mutant)
T1 construct: We purified AtCESA6 central cytoplasmic domain carrying missense mutation P595S (CESA6c^P595S); His-SUMO; made in house; host or cells: E. coli
Source text: FIGS. 3A-3Q. […] FIG. 3A to FIG. 3G. […] FIG. 3A. Representative 5-day-old dark-grown Arabidopsis Col-0 seedlings grown on growth medium supplemented with different concentrations of ES20 or ES20-1. Scale bar: 1 cm. FIG. 3B. Quantification of hypocotyl length of 5-day-old dark-grown Arabidopsis Col-0 seedlings described in FIG. 3A. Data represent mean±SD (n=12 seedlings). FIG. 3C. Quantification of crystalline cellulose content in the hypocotyl cell walls of 7-day-old dark-grown Col-0 seedlings grown on growth medium supplemented with DMSO (0.1%), 1 μM ES20, or 1 μM ES20-1. Data represent mean±SD (n=3 biological replicates). FIG. 3D and FIG. 3E. […] FIG. 3D. Representative image of 6-day-old rice seedlings grown in sterile water supplemented with DMSO (0.1%), 20 μM ES20, or 20 μM ES20-1. Scale bar: 1 cm. FIG. 3E. Quantification of root length of rice seedlings as described in FIG. 3D. Data represent mean±SD (n=10 seedlings). FIG. 3F and FIG. 3G. […] FIG. 3F. […] Quantification of root length of maize seedlings as described in FIG. 3F. […] Quantitative analysis of the band intensity of YFP-AtCESA6 and SEC12 in ES20-1-treated samples divided by that of DMSO-treated samples in the DARTS assay described in FIG. 3H. […] Statistically significant differences in FIG. 3B were determined using one-way ANOVA followed by Tukey's multiple comparisons test. […]

[2] = test system: AtCESA6 (cesa6 alleles es20r1-es20r15); experiment: Root growth of EMS-induced cesa6 mutants es20r1-es20r15 on ES20 analogs; format: in vivo, Arabidopsis thaliana; details: compared with wild-type/control plants
Source text: A subset of active ES20 analogs likely target the catalytic domain of AtCESA6. […] Since ES20 and the nine active ES20 analogs share highly similar structures, we reasoned whether these active analogs target AtCESA6 as well. We therefore examined the growth of es20r1-es20r15 plants in the presence of nine active ES20 analogs compared to wild-type plants.
To test the inhibitory effects of different chemicals on plant growth, wild-type Arabidopsis Col-0 plants were used. The seeds of plants used for growth assays or live cell imaging were sequentially sterilized with 50% bleach and 75% ethanol. […] To quantify the inhibitory effects of different ES20 active analogs on the root growth of Arabidopsis wildtype, EMS mutants, and transgenic plants expressing mutated AtCESA6 in prc1-1 background, sterilized Col-0, mutants, and transgenic plants seeds were sown on gridded Petri plates containing ½-strength MS medium supplemented with different concentrations of ES20 analogs. […] The plates were scanned using an Epson Perfection V550 scanner after 7 days of growth, and the root lengths of plants were quantified using ImageJ software. […] The Petri dishes were scanned, and hypocotyl length was measured using ImageJ. Transgenic plants expressing fluorescence-tagged PIN2, PIP2a, HDEL, VHA-a1, and GOT1p were as reported previously (Xu and Scheres, Plant Cell, 2005, 17, 525-536).

Arabidopsis Col-0 = experiment: Crystalline cellulose content measurement of cell wall; format: in vivo, Arabidopsis thaliana
Method: Arabidopsis Col-0 seeds were sown on growth medium supplemented with 0.1% DMSO, 1 μM ES20, or different concentrations of ES20 analogs. […] Cellulose extraction and measurement were performed as previously described (Huang et al., 2020).

With `Cc1ccccc1C(=O)NNC(=S)NC(=O)c1ccccc1` [ES20-1] the Kd [1] was 9.5 ± 6.3 µM, the “sensitivity of es20r1-es20r15 mutants in growth” value [2] was “All 15 mutants, which show reduced sensitivity to ES20, also showed reduced sensitivity” and the “crystalline cellulose content in hypocotyl cell wall” value (Arabidopsis Col-0; 1 μM, 7-day-old dark-grown seedlings, mean±SD, n=3) was 90 ± 6 µg/mg. The “reduction of crystalline cellulose levels in the hypocotyl” value (Arabidopsis Col-0; 1 μM, 7-day-old dark-grown seedlings, vs DMSO) was about 45% and the “root cell wall crystalline cellulose content” value (Arabidopsis Col-0; 7-day-old light-grown seedlings, different concentrations) was “very potent in inhibiting cellulose biosynthesis in roots”.
